Assay [1] has as its target T1, Leukotriene B4 receptor 1 (Homo sapiens, UniProt Q15722). In words: Displacement of [3H]LTB4 from LTB4 receptor expressed in human U937 cell membrane. Format: cell membranes, U-937.
Assay [2] concerns the target T1, Leukotriene B4 receptor 1. As to the kind of experiment: Antagonist activity at LTB4 receptor in fura-2 loaded human U937 cells assessed as inhibition of LTB4-induced calcium mobilization. It is filed as functional, cell-based, U-937.
For assay [3], the target named is T1, Leukotriene B4 receptor 1. As to the kind of experiment: Binding affinity to LTB4 receptor in human U937 cells by whole cell assay. Format: cell-based, U-937.

T1 sequence (Q15722 whole entry): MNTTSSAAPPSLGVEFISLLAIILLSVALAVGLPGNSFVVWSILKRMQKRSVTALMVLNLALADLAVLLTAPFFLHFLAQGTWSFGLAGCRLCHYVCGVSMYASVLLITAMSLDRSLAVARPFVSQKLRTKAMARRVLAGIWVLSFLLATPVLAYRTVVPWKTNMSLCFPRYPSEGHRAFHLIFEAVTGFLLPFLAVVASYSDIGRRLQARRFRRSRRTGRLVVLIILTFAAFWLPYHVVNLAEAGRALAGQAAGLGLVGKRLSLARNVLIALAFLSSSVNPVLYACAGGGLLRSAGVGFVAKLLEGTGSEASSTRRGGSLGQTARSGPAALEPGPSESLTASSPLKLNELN

In assay [1], `CN1C(=N)N(C)/C(=N/c2nc(Cc3ccc4c(c3)OCO4)c(Cc3ccc4c(c3)OCO4)n2C)C1=O` [LEUCETTAMIDINE] registered an IC50 of 15.6 µM and a Ki of 5.3 µM.
Take `Cn1c(N)nc(Cc2ccc3c(c2)OCO3)c1Cc1ccc2c(c1)OCO2` [LEUCETTAMINE A]: the values for the IC50 in assay [2], in assay [3] and in assay [1] were 4.6 µM, 0.75 µM and 4 µM, respectively. The affinity in assay [1] corresponds to a Ki of 1.3 µM.
`CN1C(=O)/C(=C/c2ccc3c(c2)OCO3)N=C1N` [LEUCETTAMINE B] had a Ki in assay [1] of 100 µM.

The record behind these values is ChEMBL document CHEMBL1147335, “New leukotriene B4 receptor antagonist: leucettamine A and related imidazole alkaloids from the marine sponge Leucetta microraphis” (J Nat Prod, 1993).
